The source made the active and inactive calls. The calls are words filed in the database; no cut-off is given here.
Assays:
Hepatitis B virus [1] = experiment: Antiviral activity against genotype B HBV infected in primary human hepatocyte assessed as reduction in […] replaced for every 2 to 3 days incubated for 12 days by multiplex chemiluminescent MSD assay; assay type: functional, organism-based; settings: time 12.0 day
AN3-CA = experiment: Cytotoxicity against human AN3-CA cells assessed as inhibition of cell viability measured upto 17 uM incubated for 5 days; assay type: toxicity, cell-based; settings: 120 h, time 5 day
HepG2 = experiment: Cytotoxicity against human HepG2 cells assessed as inhibition of cell viability measured upto 17 uM incubated for 5 days; assay type: toxicity, cell-based; settings: hepg2, 120 h, time 5 day
A498 = experiment: Cytotoxicity against human A498 cells assessed as inhibition of cell viability measured upto 17 uM incubated for 5 days; assay type: toxicity, cell-based; settings: a498, 120 h, time 5 day
A204 = experiment: Cytotoxicity against human A204 cells assessed as inhibition of cell viability measured upto 17 uM incubated for 5 days; assay type: toxicity, cell-based; settings: a204, 120 h, time 5 day
SK-N-AS = experiment: Cytotoxicity against human SK-N-AS cells assessed as inhibition of cell viability measured upto 17 uM incubated for 5 days; assay type: toxicity, cell-based; settings: 120 h, time 5 day
PBMC = experiment: Cytotoxicity against human PBMC cells assessed as inhibition of cell viability measured upto 17 uM incubated for 5 days; assay type: toxicity, cell-based; settings: 120 h, time 5 day
[2] = test system: Woodchuck hepatitis virus; experiment: Antiviral activity against WHV-infected Woodchucks assessed as reduction in WHV sAg level in plasma at 15 mg/kg, po qd for 12 weeks; assay type: functional
A 172 = experiment: Cytotoxicity against human A-172 cells assessed as inhibition of cell viability measured upto 17 uM incubated for 5 days; assay type: toxicity, cell-based; settings: a 172, 120 h, time 5 day
[3] = Cytotoxicity against rat NRVM cells assessed as inhibition of cell viability measured upto 17 uM incubated for 5 days; assay type: toxicity, cell-based; settings: 120 h, time 5 day
[4] = Oral bioavailability in Sprague-Dawley rat after 24 hrs by LC/MS/MS method; assay type: ADME, organism-based; settings: in vivo
[5] = Oral bioavailability in rat at 5 mg/kg; assay type: ADME, organism-based; settings: in vivo
[6] = In vivo clearance in dog; assay type: ADME, organism-based, Canis lupus familiaris
Huh-7 = experiment: Cytotoxicity against human Huh-7 cells assessed as inhibition of cell viability measured upto 17 uM incubated for 5 days; assay type: toxicity, cell-based; settings: huh-7, 120 h, time 5 day
Primary hepatocyte [7] = experiment: Effect on cccDNA level in HBV infected primary human hepatocyte at 0.25 uM media replaced for every 2 to 3 days incubated for 12 days by Southern blot analysis; assay type: functional, cell-based; settings: Hepatitis B virus, time 12.0 day
[8] = Lipophilicity, logD of the compound; assay type: physicochemical; settings: octanol/water
[9] = Oral bioavailability in dog at 5 mg/kg; assay type: ADME, organism-based, Canis lupus familiaris; settings: in vivo
Hepatitis B virus [10] = experiment: Antiviral activity against HBV genome D integrated human HepAD38 cells assessed as reduction in extracellular HBsAg media replaced for every 2 to 3 days incubated for 7 days […]; assay type: functional, organism-based; settings: time 7.0 day
Hepatitis B virus [11] = experiment: Antiviral activity against genotype D (AD38-derived) HBV infected in primary human hepatocyte assessed as inhibition of extracellular HBsAg media replaced for every 2 to 3 days incubated for 12 days by multiplex chemiluminescent MSD assay; assay type: functional; settings: time 12 day
Hepatitis B virus [12] = experiment: In vivo antiviral activity against HBV in model of HBV 1.3.32 mouse harboring integrated greater-than-genome-length HBV transgene assessed as plasma HBsAg level measured in off-treatment recovery phase at 50 mg/kg, sc qd treated for 4 weeks (reference value: 1.1 log10 ng/ml); assay type: functional
Hepatitis B virus [13] = experiment: Antiviral activity against genotype D HBV infected in sodium taurocholate co-transporting polypeptide receptor-expressing stable HepG2 cell line assessed as suppression of HBsAg level incubated for 5 days by multiplex chemiluminescent MSD assay; assay type: functional, organism-based; settings: HepG2, 120 h
Hepatitis B virus [14] = experiment: Antiviral activity against genotype E HBV infected in primary human hepatocyte assessed as reduction in […] replaced for every 2 to 3 days incubated for 12 days by multiplex chemiluminescent MSD assay; assay type: functional, organism-based; settings: time 12.0 day
Hepatitis B virus [15] = experiment: Antiviral activity against HBV genome D integrated human HepG2.2.15 cells assessed as reduction in extracellular HBsAg media replaced for every 2 to 3 days incubated for 7 days; assay type: functional, organism-based; settings: time 7.0 day
[16] = In vivo clearance in rat; assay type: ADME, organism-based
Hepatocyte = experiment: Cytotoxicity against primary human hepatocyte assessed as change in cell morphology; assay type: toxicity, cell-based; settings: hepatocytes
[17] = In vivo clearance in cynomolgus monkey; assay type: ADME, organism-based, Macaca fascicularis
[18] = Hepatic extraction in cynomolgus monkey; assay type: ADME, Macaca fascicularis; settings: read-out: ERH
PC-3 = experiment: Cytotoxicity against human PC-3 cells assessed as inhibition of cell viability measured upto 17 uM incubated for 5 days; assay type: toxicity, cell-based; settings: pc-3, 120 h, time 5 day
[19] = Hepatic extraction in rat; assay type: ADME; settings: read-out: ERH
A-375 = experiment: Cytotoxicity against human A-375 cells assessed as inhibition of cell viability measured upto 17 uM incubated for 5 days; assay type: toxicity, cell-based; settings: a-375, 120 h, time 5 day
MRC5 = experiment: Cytotoxicity against human MRC5 cells assessed as inhibition of cell viability measured upto 17 uM incubated for 5 days; assay type: toxicity, cell-based; settings: mrc5, 120 h, time 5 day
[20] = Oral bioavailability in cynomolgus monkey at 5 mg/kg; assay type: ADME, organism-based, Macaca fascicularis; settings: in vivo
[21] = Hepatic extraction in dog; assay type: ADME, Canis lupus familiaris; settings: read-out: ERH
OVCAR-3 = experiment: Cytotoxicity against human OVCAR-3 cells assessed as inhibition of cell viability measured upto 17 uM incubated for 5 days; assay type: toxicity, cell-based; settings: ovcar-3, 120 h, time 5 day
ASPC1 = experiment: Cytotoxicity against human AsPC1 cells assessed as inhibition of cell viability measured upto 17 uM incubated for 5 days; assay type: toxicity, cell-based; settings: aspc1, 120 h, time 5 day
Hepatitis B virus [22] = experiment: Antiviral activity against genotype C HBV infected in primary human hepatocyte assessed as reduction in […] replaced for every 2 to 3 days incubated for 12 days by multiplex chemiluminescent MSD assay; assay type: functional, organism-based; settings: time 12.0 day
Hepatitis B virus [23] = experiment: Antiviral activity against genotype A HBV infected in primary human hepatocyte assessed as reduction in […] replaced for every 2 to 3 days incubated for 12 days by multiplex chemiluminescent MSD assay; assay type: functional, organism-based; settings: time 12.0 day
769-P = experiment: Cytotoxicity against human 769-P cells assessed as inhibition of cell viability measured upto 17 uM incubated for 5 days; assay type: toxicity, cell-based; settings: 120 h, time 5 day
Hepatitis B virus [24] = experiment: Antiviral activity against HBV infected in primary human hepatocyte assessed as reduction in intracellular HBsAg protein at 250 nM media replaced for every 2 to 3 days incubated for 14 days by immunofluorescence microscopy; assay type: functional, organism-based; settings: time 14.0 day
Primary hepatocyte [25] = experiment: Effect on cccDNA level in HBV infected primary human hepatocyte at 0.25 uM media replaced for every 2 to 3 days incubated for 12 days in presence of Tenofovir by Southern blot analysis; assay type: functional, cell-based; settings: Hepatitis B virus, time 12.0 day
Hepatitis B virus [26] = experiment: In vivo antiviral activity against HBV in model of HBV 1.3.32 mouse harboring integrated greater-than-genome-length HBV transgene assessed as reduction in plasma HBsAg level at 50 mg/kg, sc qd treated for 4 weeks (reference value: 1.1 log10 ng/ml); assay type: functional
MG-63 = experiment: Cytotoxicity against human MG-63 cells assessed as inhibition of cell viability measured upto 17 uM incubated for 5 days; assay type: toxicity, cell-based; settings: mg-63, 120 h, time 5 day
MT4 = experiment: Cytotoxicity against human MT4 cells assessed as inhibition of cell viability measured upto 17 uM incubated for 5 days; assay type: toxicity, cell-based; settings: mt4, 120 h, time 5 day
[27] = Clearance in Sprague-Dawley rat at […], iv measured after 24 hrs by LC/MS/MS method; assay type: ADME, organism-based; settings: in vivo
J82 = experiment: Cytotoxicity against human J82 cells assessed as inhibition of cell viability measured upto 17 uM incubated for 5 days; assay type: toxicity, cell-based; settings: j82, 120 h, time 5 day

With COCCCOc1cc2c(cc1Cl)-c1cc(=O)c(C(=O)O)cn1N(C(C)(C)C)C2 the Activity (Hepatitis B virus [1]) was “Active”, the Activity (AN3-CA) was “Non-Toxic” and the Activity (HepG2) was “Non-Toxic”. The Activity (A498) was “Non-Toxic”, the Activity (A204) was “Non-Toxic” and the Activity (SK-N-AS) was “Non-Toxic”. For the same compound, the Activity (PBMC) was “Non-Toxic”, the Activity [2] was 1.4 log10ng/ml and the Activity (A 172) was “Non-Toxic”. For the same compound, the Activity [3] was “Non-Toxic”, the bioavailability [4] was 109% and the bioavailability [5] was > 100%. For the same compound, the clearance [6] was 0.13 L/h/kg, the Activity (Huh-7) was “Non-Toxic” and the Activity (Primary hepatocyte [7]) was “inactive”. For the same compound, the logD [8] was 2, the bioavailability [9] was > 100% and the Activity (Hepatitis B virus [10]) was “Active”. For the same compound, the “inhibition (INH)” value (Hepatitis B virus [11]) was 85%, the Activity (Hepatitis B virus [12]) was 0.7 log10ng/ml and the EC50 (Hepatitis B virus [13]) was 5.8 nM. The Activity (Hepatitis B virus [14]) was “Active”, the Activity (Hepatitis B virus [15]) was “Active” and the clearance [16] was 0.18 L/h/kg. The Activity (Hepatocyte) was “Non-Toxic”, the clearance [17] was 0.032 L/h/kg and the hepatic extraction ratio [18] was 0.02. For the same compound, the Activity (PC-3) was “Non-Toxic”, the hepatic extraction ratio [19] was 0.043 and the Activity (A-375) was “Non-Toxic”. The Activity (MRC5) was “Non-Toxic”, the bioavailability [20] was 48% and the hepatic extraction ratio [21] was 0.072. For the same compound, the Activity (OVCAR-3) was “Non-Toxic”, the Activity (ASPC1) was “Non-Toxic” and the Activity (Hepatitis B virus [22]) was “Active”. For the same compound, the Activity (Hepatitis B virus [23]) was “Active”, the Activity (769-P) was “Non-Toxic” and the Activity (Hepatitis B virus [24]) was “Active”. The Activity (Primary hepatocyte [25]) was “inactive”, the Activity (Hepatitis B virus [26]) was 2.2 log10ng/ml and the Activity (MG-63) was “Non-Toxic”. The Activity (MT4) was “Non-Toxic”, the clearance [27] was 1.18 L/h/kg and the Activity (J82) was “Non-Toxic”.
